Experimental data from the NIST ThermoML archive (doi:10.1021/je300799f).
Numbers after ± are expanded uncertainties.

Test: xn = mol fraction of the nth substance listed
Conditions: 101 kPa, Liquid, Vibrating tube method

CCCC(=O)OC [methyl butanoate] + CCCCCCCCC
Conditions	mass density [kg/m3]
288.15 K, x1 = 0.0544	727.14 ± 0.25
288.15 K, x1 = 0.0804	729.99 ± 0.25
288.15 K, x1 = 0.1647	739.66 ± 0.25
288.15 K, x1 = 0.2172	746.06 ± 0.25
288.15 K, x1 = 0.2378	748.63 ± 0.26
288.15 K, x1 = 0.2963	756.43 ± 0.26
288.15 K, x1 = 0.3419	762.85 ± 0.26
288.15 K, x1 = 0.3986	771.19 ± 0.26
288.15 K, x1 = 0.4425	778.04 ± 0.26
288.15 K, x1 = 0.5007	787.63 ± 0.26
288.15 K, x1 = 0.5488	796.09 ± 0.26
288.15 K, x1 = 0.604	806.21 ± 0.26
288.15 K, x1 = 0.6553	816.39 ± 0.27
288.15 K, x1 = 0.6959	824.67 ± 0.27
288.15 K, x1 = 0.7507	836.81 ± 0.27
288.15 K, x1 = 0.8114	850.96 ± 0.28
288.15 K, x1 = 0.8553	862.13 ± 0.28
288.15 K, x1 = 0.8988	873.46 ± 0.29
288.15 K, x1 = 0.9507	888.13 ± 0.29
288.15 K, x1 = 1	903.31 ± 0.23
298.15 K, x1 = 0.0495	718.76 ± 0.25
298.15 K, x1 = 0.0998	724.04 ± 0.25
298.15 K, x1 = 0.1729	732.49 ± 0.25
298.15 K, x1 = 0.1935	734.88 ± 0.25
298.15 K, x1 = 0.2473	741.54 ± 0.25
298.15 K, x1 = 0.3035	748.92 ± 0.26
298.15 K, x1 = 0.3558	756.23 ± 0.26
298.15 K, x1 = 0.4462	769.69 ± 0.26
298.15 K, x1 = 0.5497	786.99 ± 0.26
298.15 K, x1 = 0.6465	805.02 ± 0.27
298.15 K, x1 = 0.7509	826.86 ± 0.27
298.15 K, x1 = 0.7772	832.78 ± 0.28
298.15 K, x1 = 0.8038	839.14 ± 0.28
298.15 K, x1 = 0.9052	864.6 ± 0.28
298.15 K, x1 = 0.953	878.19 ± 0.29
298.15 K, x1 = 1	892.31 ± 0.23
308.15 K, x1 = 0.0554	711.45 ± 0.25
308.15 K, x1 = 0.1002	716.1 ± 0.25
308.15 K, x1 = 0.1653	723.29 ± 0.25
308.15 K, x1 = 0.2108	728.63 ± 0.25
308.15 K, x1 = 0.2545	734.04 ± 0.26
308.15 K, x1 = 0.3082	740.93 ± 0.26
308.15 K, x1 = 0.3598	748.08 ± 0.26
308.15 K, x1 = 0.409	755.11 ± 0.26
308.15 K, x1 = 0.4594	762.76 ± 0.26
308.15 K, x1 = 0.4993	769.14 ± 0.26
308.15 K, x1 = 0.5504	777.76 ± 0.26
308.15 K, x1 = 0.6001	786.6 ± 0.26
308.15 K, x1 = 0.6482	795.68 ± 0.27
308.15 K, x1 = 0.6945	804.91 ± 0.27
308.15 K, x1 = 0.7463	815.78 ± 0.27
308.15 K, x1 = 0.7964	827.07 ± 0.28
308.15 K, x1 = 0.8451	838.68 ± 0.28
308.15 K, x1 = 0.8948	851.33 ± 0.28
308.15 K, x1 = 0.9497	866.34 ± 0.29
308.15 K, x1 = 1	881.19 ± 0.24
318.15 K, x1 = 0.0234	700.32 ± 0.25
318.15 K, x1 = 0.0731	705.17 ± 0.25
318.15 K, x1 = 0.1033	708.28 ± 0.25
318.15 K, x1 = 0.1552	713.83 ± 0.25
318.15 K, x1 = 0.1993	718.91 ± 0.26
318.15 K, x1 = 0.2571	725.77 ± 0.26
318.15 K, x1 = 0.3123	732.79 ± 0.26
318.15 K, x1 = 0.3568	738.79 ± 0.26
318.15 K, x1 = 0.4135	746.74 ± 0.26
318.15 K, x1 = 0.4555	753.07 ± 0.26
318.15 K, x1 = 0.5093	761.51 ± 0.26
318.15 K, x1 = 0.5565	769.3 ± 0.26
318.15 K, x1 = 0.6043	777.7 ± 0.26
318.15 K, x1 = 0.6544	787.04 ± 0.27
318.15 K, x1 = 0.7067	797.4 ± 0.27
318.15 K, x1 = 0.7541	807.31 ± 0.27
318.15 K, x1 = 0.8037	818.4 ± 0.28
318.15 K, x1 = 0.8594	831.69 ± 0.28
318.15 K, x1 = 0.9068	843.76 ± 0.28
318.15 K, x1 = 0.9511	855.91 ± 0.29
318.15 K, x1 = 1	870.06 ± 0.24
328.15 K, x1 = 0.0272	692.57 ± 0.25
328.15 K, x1 = 0.0562	695.34 ± 0.25
328.15 K, x1 = 0.078	697.49 ± 0.25
328.15 K, x1 = 0.1041	700.12 ± 0.26
328.15 K, x1 = 0.1502	704.97 ± 0.26
328.15 K, x1 = 0.2023	710.73 ± 0.26
328.15 K, x1 = 0.2654	718.16 ± 0.26
328.15 K, x1 = 0.3073	723.36 ± 0.26
328.15 K, x1 = 0.3624	730.61 ± 0.26
328.15 K, x1 = 0.412	737.45 ± 0.26
328.15 K, x1 = 0.4567	744 ± 0.26
328.15 K, x1 = 0.5083	751.95 ± 0.26
328.15 K, x1 = 0.5549	759.51 ± 0.26
328.15 K, x1 = 0.6157	770.1 ± 0.26
328.15 K, x1 = 0.6554	777.42 ± 0.27
328.15 K, x1 = 0.7027	786.49 ± 0.27
328.15 K, x1 = 0.749	795.99 ± 0.27
328.15 K, x1 = 0.8511	819.04 ± 0.28
328.15 K, x1 = 0.9051	832.64 ± 0.28
328.15 K, x1 = 0.9506	844.76 ± 0.29
328.15 K, x1 = 1	858.8 ± 0.24
